Assay results as given in article PMC11995724, “Antibiotic target discovery by integrated phenotypic and activity-based profiling of electrophilic fragments” (Cell chemical biology, 2025).

assay: in vitro; conditions: human, hek293t cells

Going from C=CC(=O)NCCNS(=O)(=O)c1cc(C)sc1C [3-C21, N-[2-(2,5-dimethylthiophene-3-sulfonamido)ethyl]prop-2-enamide] to C=CC(=O)NCc1cccc(CNS(C)(=O)=O)c1 [3-F11, N-{[3-(methanesulfonamidomethyl)phenyl]methyl}prop-2-enamide], the viability at 48 h, 25 µM rises from 34.6% to 95.9%.

Going from C=CC(=O)NCc1cnoc1C [3-C22, N-[(5-methyl-1,2-oxazol-4-yl)methyl]prop-2-enamide] to C=CC(=O)NCc1ncoc1C(F)(F)F [3-E18, N-{[5-(trifluoromethyl)-1,3-oxazol-4-yl]methyl}prop-2-enamide], the viability at 48 h, 25 µM rises from 51.5% to 93.1%.

First: C=CC(=O)N(CC)CC(=O)N1CCN(c2ccc(C#N)cc2F)CC1 [3-D03, N-{2-[4-(4-cyano-2-fluorophenyl)piperazin-1-yl]-2-oxoethyl}-N-ethylprop-2-enamide]
Second: C=CC(=O)NCCC(=O)N1CCN(c2ccc(C#N)cc2F)CC1 [3-D07, N-{3-[4-(4-cyano-2-fluorophenyl)piperazin-1-yl]-3-oxopropyl}prop-2-enamide]
The viability at 48 h, 25 µM of the first is higher: 74.4% for the first, 56.6% for the second.

Going from C=CC(=O)NCc1nc(-c2ccc(F)cc2)n[nH]1 [3-D04, N-{[3-(4-fluorophenyl)-1H-1,2,4-triazol-5-yl]methyl}prop-2-enamide] to C=CC(=O)NCc1ccc2oc(=O)[nH]c2c1 [3-D14, N-[(2-oxo-2,3-dihydro-1,3-benzoxazol-5-yl)methyl]prop-2-enamide], the viability at 48 h, 25 µM rises from 95.1% to 103%.

First: C=CC(=O)Nc1cc(NC(=O)C2(OC)CCOC2)ccc1F (centres unmarked) [3-D05, N-[4-fluoro-3-(prop-2-enamido)phenyl]-3-methoxyoxolane-3-carboxamide]
Second: C=CC(=O)Nc1ccc(C(=O)N2CCC(C)(C)S(=O)(=O)CC2)cc1 [3-E04, N-[4-(7,7-dimethyl-1,1-dioxo-1lambda6,4-thiazepane-4-carbonyl)phenyl]prop-2-enamide]
The viability at 48 h, 25 µM of the first is lower: 75.8% for the first, 78.6% for the second.

Compared with C=CC(=O)Nc1cn(CC(F)(F)F)nc1C [3-D06, N-[3-methyl-1-(2,2,2-trifluoroethyl)-1H-pyrazol-4-yl]prop-2-enamide], C=CC(=O)NC(C)Cn1cc(C(=O)O)cn1 (centres unmarked) [3-D10, 1-[2-(prop-2-enamido)propyl]-1H-pyrazole-4-carboxylic acid] is higher in viability at 48 h, 25 µM: 55.3% for the first, 96% for the second.

Going from C=CC(=O)NCCC(=O)NC1CCSc2ccc(F)cc21 (centres unmarked) [3-D08, N-{2-[(6-fluoro-3,4-dihydro-2H-1-benzothiopyran-4-yl)carbamoyl]ethyl}prop-2-enamide] to C=CC(=O)NCCC(=O)N1CCCC1c1cn(C)nc1C (centres unmarked) [3-E10, N-{3-[2-(1,3-dimethyl-1H-pyrazol-4-yl)pyrrolidin-1-yl]-3-oxopropyl}prop-2-enamide], the viability at 48 h, 25 µM rises from 70.7% to 95.2%.

Compared with C=CC(=O)NCc1cn(C2CCC2)nn1 [3-D09, N-[(1-cyclobutyl-1H-1,2,3-triazol-4-yl)methyl]prop-2-enamide], C=CC(=O)NC[C@@H]1CCCN1c1ccccc1 [3-E03, N-{[(2S)-1-phenylpyrrolidin-2-yl]methyl}prop-2-enamide] is higher in viability at 48 h, 25 µM: 48.7% for the first, 60.1% for the second.

First: C=CC(=O)N(C)CC1(O)CCc2ccccc21 (centres unmarked) [3-D11, N-[(1-hydroxy-2,3-dihydro-1H-inden-1-yl)methyl]-N-methylprop-2-enamide]
Second: C=CC(=O)N(C)CC(=O)N1CCCc2ccccc21 [3-D15, N-methyl-N-[2-oxo-2-(1,2,3,4-tetrahydroquinolin-1-yl)ethyl]prop-2-enamide]
The viability at 48 h, 25 µM of the first is lower: 58.6% for the first, 65.7% for the second.

Going from C=CC(=O)N1CCC(C(=O)NCc2cn3ccc(C)nc3n2)CC1 [3-D12, N-({7-methylimidazo[1,2-a]pyrimidin-2-yl}methyl)-1-(prop-2-enoyl)piperidine-4-carboxamide] to C=CC(=O)N1CCC(C(=O)NCCc2cc[nH]n2)CC1 [3-E07, 1-(prop-2-enoyl)-N-[2-(1H-pyrazol-3-yl)ethyl]piperidine-4-carboxamide], the viability at 48 h, 25 µM falls from 75.3% to 34.2%.

First: C#CCN(C(=O)c1ccc(NC(=O)C=C)cc1)C1CCCCC1 [3-D13, N-cyclohexyl-4-(prop-2-enamido)-N-(prop-2-yn-1-yl)benzamide]
Second: C=CC(=O)Nc1ccc(C(=O)N2CCCCC2c2n[nH]c(C)n2)cc1 (centres unmarked) [3-E13, N-{4-[2-(5-methyl-1H-1,2,4-triazol-3-yl)piperidine-1-carbonyl]phenyl}prop-2-enamide]
The viability at 48 h, 25 µM of the first is lower: 15.9% for the first, 34.9% for the second.

Going from C=CC(=O)Nc1cccc(NS(=O)(=O)C2CC2)c1 [3-D16, N-(3-cyclopropanesulfonamidophenyl)prop-2-enamide] to C=CC(=O)N1CCC(C(=O)Nc2cccc(NC(=O)C(C)C)c2)CC1 [3-F05, N-[3-(2-methylpropanamido)phenyl]-1-(prop-2-enoyl)piperidine-4-carboxamide], the viability at 48 h, 25 µM falls from 80.5% to 53.3%.

First: C=CC(=O)N1CCCC(S(=O)(=O)NC)C1 (centres unmarked) [3-D17, N-methyl-1-(prop-2-enoyl)piperidine-3-sulfonamide]
Second: C=CC(=O)N1CCCC(CNC(C)=O)C1 (centres unmarked) [3-E15, N-{[1-(prop-2-enoyl)piperidin-3-yl]methyl}acetamide]
The viability at 48 h, 25 µM of the first is higher: 67.5% for the first, 46.4% for the second.

Compared with C=CC(=O)N[C@H]1C[C@H](S(C)(=O)=O)C1 [3-D18, N-[(1r,3r)-3-methanesulfonylcyclobutyl]prop-2-enamide], C=CC(=O)N1CCN(S(=O)(=O)CC)CC1 [3-D20, 1-[4-(ethanesulfonyl)piperazin-1-yl]prop-2-en-1-one] is higher in viability at 48 h, 25 µM: 83.6% for the first, 106% for the second.

Compared with C=CC(=O)N1CCC=C(c2cn(C(C)C)nn2)CC1 [3-D19, 1-{4-[1-(propan-2-yl)-1H-1,2,3-triazol-4-yl]-2,3,6,7-tetrahydro-1H-azepin-1-yl}prop-2-en-1-one], C=CC(=O)N1CCC([C@@H](C)O)CC1 [3-E12, 1-{4-[(1R)-1-hydroxyethyl]piperidin-1-yl}prop-2-en-1-one] is higher in viability at 48 h, 25 µM: 78.1% for the first, 104% for the second.

Compared with C=CC(=O)NC(c1nc(C)cs1)C1CC1 (centres unmarked) [3-D21, N-[cyclopropyl(4-methyl-1,3-thiazol-2-yl)methyl]prop-2-enamide], C=CC(=O)NCCC(=O)N1CCN(c2nc(C)cs2)CC1 [3-F07, N-{3-[4-(4-methyl-1,3-thiazol-2-yl)piperazin-1-yl]-3-oxopropyl}prop-2-enamide] is lower in viability at 48 h, 25 µM: 74.9% for the first, 52.1% for the second.

Going from C=CC(=O)N1CCCc2c(OCC(N)=O)cccc21 [3-D22, 2-{[1-(prop-2-enoyl)-1,2,3,4-tetrahydroquinolin-5-yl]oxy}acetamide] to C=CC(=O)N1CCC(C(=O)Nc2ccc3c(c2)CCN3C(N)=O)CC1 [3-E16, 5-[1-(prop-2-enoyl)piperidine-4-amido]-2,3-dihydro-1H-indole-1-carboxamide], the viability at 48 h, 25 µM rises from 95.2% to 101%.

First: C=CC(=O)N1CCC(c2nc(C)no2)CC1 [3-E05, 1-[4-(3-methyl-1,2,4-oxadiazol-5-yl)piperidin-1-yl]prop-2-en-1-one]
Second: C=CC(=O)N1CCC(C(=O)N[C@@H](C)c2ccc(Cl)s2)CC1 [3-E22, N-[(1S)-1-(5-chlorothiophen-2-yl)ethyl]-1-(prop-2-enoyl)piperidine-4-carboxamide]
The viability at 48 h, 25 µM of the first is lower: 49.7% for the first, 65.7% for the second.

First: C=CC(=O)N1CCC(C(=O)N2CCOc3cc(F)ccc3C2)CC1 [3-E06, 1-[4-(8-fluoro-2,3,4,5-tetrahydro-1,4-benzoxazepine-4-carbonyl)piperidin-1-yl]prop-2-en-1-one]
Second: C=CC(=O)N1CCC(C(=O)N2CCC(OC)(C(F)(F)F)CC2)CC1 [3-E08, 1-{4-[4-methoxy-4-(trifluoromethyl)piperidine-1-carbonyl]piperidin-1-yl}prop-2-en-1-one]
The viability at 48 h, 25 µM of the first is lower: 67.9% for the first, 98.2% for the second.

Compared with C=CC(=O)N1CCOC(c2cccc(OC)c2)C1 (centres unmarked) [3-E09, 1-[2-(3-methoxyphenyl)morpholin-4-yl]prop-2-en-1-one], C=CC(=O)N1CCCCC1c1nc2ccccc2n1C (centres unmarked) [3-F04, 1-[2-(1-methyl-1H-1,3-benzodiazol-2-yl)piperidin-1-yl]prop-2-en-1-one] is higher in viability at 48 h, 25 µM: 34.5% for the first, 84.2% for the second.

Compared with C=CC(=O)N1CCCC2(CCCOC2)C1 (centres unmarked) [3-E11, 1-{2-oxa-8-azaspiro[5.5]undecan-8-yl}prop-2-en-1-one], C=CC(=O)N1CCC(C(=O)N[C@]2(C(=O)OC)CC[C@@H](C)CC2)CC1 [3-E17, methyl (1r,4r)-4-methyl-1-[1-(prop-2-enoyl)piperidine-4-amido]cyclohexane-1-carboxylate] is higher in viability at 48 h, 25 µM: 46.3% for the first, 57% for the second.

Going from C=CC(=O)N(C)CC(=O)NC(C)(C)c1nc(C)cs1 [3-E14, N-methyl-N-({[2-(4-methyl-1,3-thiazol-2-yl)propan-2-yl]carbamoyl}methyl)prop-2-enamide] to C=CC(=O)N(CC)CC(=O)N1CCCC(c2nccn2C)C1 (centres unmarked) [3-F03, N-ethyl-N-{2-[3-(1-methyl-1H-imidazol-2-yl)piperidin-1-yl]-2-oxoethyl}prop-2-enamide], the viability at 48 h, 25 µM rises from 87.9% to 106%.

First: C=CC(=O)NCc1ccc(C(=O)N2CCCC(c3nnc[nH]3)C2)cc1 (centres unmarked) [3-E19, N-({4-[3-(4H-1,2,4-triazol-3-yl)piperidine-1-carbonyl]phenyl}methyl)prop-2-enamide]
Second: C=CC(=O)N(CC)CC(=O)N1CCNC(=O)CC1c1ccccc1 (centres unmarked) [3-E21, N-ethyl-N-[2-oxo-2-(5-oxo-7-phenyl-1,4-diazepan-1-yl)ethyl]prop-2-enamide]
The viability at 48 h, 25 µM of the first is higher: 34.3% for the first, 33.1% for the second.

Going from C=CC(=O)N1CCC(C(=O)Nc2ccc(N)c([N+](=O)[O-])c2)CC1 [3-E20, N-(4-amino-3-nitrophenyl)-1-(prop-2-enoyl)piperidine-4-carboxamide] to C=CC(=O)NCCC(=O)N1CCc2cc(C)c([N+](=O)[O-])cc21 [3-F08, N-[3-(5-methyl-6-nitro-2,3-dihydro-1H-indol-1-yl)-3-oxopropyl]prop-2-enamide], the viability at 48 h, 25 µM rises from 56.7% to 82.7%.

First: C=CC(=O)NC(C)c1ccc2c(c1)CCC2 (centres unmarked) [3-F09, N-[1-(2,3-dihydro-1H-inden-5-yl)ethyl]prop-2-enamide]
Second: C=CC(=O)NCc1nnc(COC)[nH]1 [3-F10, N-{[5-(methoxymethyl)-4H-1,2,4-triazol-3-yl]methyl}prop-2-enamide]
The viability at 48 h, 25 µM of the first is lower: 72.3% for the first, 102% for the second.
